# Source: patent US12686855B2, “Generation of pancreatic endoderm from stem cell derived definitive endoderm” (ASPECT BIOSYSTEMS LTD., priority 2019, dated 2026)
# Legend:
# [1] = tested on: human ES cell or human iPS cell derived PE clusters; assay: Further differentiation of PE clusters to beta cell like cells, flow cytometry on Cpep/Nkx6.1 and glucagon; format: cell-based; conditions: for Cpep/Nkx6.1 double positive: extended in vitro culture
# Source text: The human ES cell or human iPS cell derived PE clusters are washed and further differentiated to endocrine progenitors (EP) and beta cell like cells (BC), using protocols for endocrine and beta cell induction, as described in WO2015/028614, WO2017/144695 and WO/2019/048690, which are all incorporated herein by reference in their entirety.
# At the end of BC differentiation clusters were sampled, dissociated to single cells with TrypLE-Select (Gibco 12563-011), fixed in 10% formalin, stained with Cpep/Nkx6.1 and glucagon and analyzed by flow cytometry.
# [2] = tested on: definitive endoderm cells derived from human pluripotent stem cells (hES line SA121); assay: Differentiation of definitive endoderm to pancreatic endoderm, flow cytometry (FACS) at PE stage; format: cell-based; conditions: PE10
# [3] = tested on: differentiated cells at the beta cell stage; assay: Transplantation of differentiated cells at the beta cell stage, immunohistochemistry and quantitative image analysis; format: in vivo; conditions: 8 weeks after transplantation
# [4] = molecular target: T1, RARγ (Homo sapiens, UniProt P13631); conditions: cited from earlier work
# T1 sequence (P13631 1-454): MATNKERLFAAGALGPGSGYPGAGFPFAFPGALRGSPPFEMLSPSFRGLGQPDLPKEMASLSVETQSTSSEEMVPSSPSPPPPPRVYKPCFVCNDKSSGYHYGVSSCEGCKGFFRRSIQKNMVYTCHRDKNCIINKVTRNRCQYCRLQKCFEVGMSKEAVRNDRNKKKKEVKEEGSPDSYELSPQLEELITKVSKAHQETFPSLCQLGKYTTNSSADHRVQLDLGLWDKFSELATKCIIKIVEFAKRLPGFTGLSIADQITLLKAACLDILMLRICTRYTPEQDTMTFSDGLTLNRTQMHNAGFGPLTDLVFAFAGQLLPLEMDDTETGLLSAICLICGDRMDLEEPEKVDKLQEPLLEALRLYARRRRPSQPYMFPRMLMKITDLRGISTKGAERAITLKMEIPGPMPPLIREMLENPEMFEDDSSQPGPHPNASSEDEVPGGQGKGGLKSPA
# [5] = molecular target: T2, RARβ (Homo sapiens, UniProt P10826); conditions: cited from earlier work
# T2 sequence (P10826 1-455): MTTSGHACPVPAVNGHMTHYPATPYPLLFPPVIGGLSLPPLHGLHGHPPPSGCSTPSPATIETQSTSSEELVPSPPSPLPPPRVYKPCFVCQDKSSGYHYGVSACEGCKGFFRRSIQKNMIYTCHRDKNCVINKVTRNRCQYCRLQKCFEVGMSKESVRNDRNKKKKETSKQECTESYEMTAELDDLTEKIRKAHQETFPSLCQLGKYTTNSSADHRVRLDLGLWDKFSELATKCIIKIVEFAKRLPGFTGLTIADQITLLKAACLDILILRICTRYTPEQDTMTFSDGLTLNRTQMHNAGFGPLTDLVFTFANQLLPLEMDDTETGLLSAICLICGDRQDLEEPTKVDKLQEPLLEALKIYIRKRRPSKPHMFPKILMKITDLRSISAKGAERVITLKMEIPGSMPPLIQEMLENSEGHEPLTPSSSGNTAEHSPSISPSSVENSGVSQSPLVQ
# [6] = tested on: definitive endoderm cells derived from human pluripotent stem cells (hES line SA121); assay: Differentiation of definitive endoderm to pancreatic endoderm, flow cytometry (FACS) at PE stage; format: cell-based
# Experimental: (§1) Human embryonic stem (hES) cells line SA121 (Cellectis) are expanded in DEF-CS culture medium (Takara BIO Europe) in fibronectin (Sigma) coated culture flasks (Corning) with 30 ng/ml bFGF (Peprotech) and 10 ng/ml noggin (Peprotech). Cells are single cell passaged with 10 μM Rock inhibitor Y-27632 (Sigma #Y0503) and seeded in shaker flasks or bioreactors (DASBOX, DASGIP, Eppendorf) at a density of 0.5-1 mio/ml and allowed to form clusters under constant stirring conditions.
# (§2) After 1-3 days in DEF-CS medium with daily medium change, the clusters are differentiated to DE as described in WO2012/175633 (which is incorporated herein by reference in its entirety). The cell clusters are washed once in RPM11640 (Gibco #61870) and treated with 2-7 μM CHIR99021 (Axon #1386) in RPM11640. After 24 hours the cells were washed with RPM11640 and treated with 25-100 ng/ml Activin A (Peprotech #120-14E) and 2% B27 (Invitrogen #17504-044) in RPM11640 for 3 days with medium change every 24 or 48 hours. Cells are maintained at 37° C. and 5% CO2 in a humidified shaker incubator (Infors) during the differentiation to DE, or in a bioreactor system (DASBOX, DASGIP, Eppendorf).
# (§3) Medium was changed daily or every other day. At the end of PE differentiation clusters were analysed by flow cytometry or gene expression analysis (Nanostring). 10 μM AGN193109 (Tocris 5758) was added to the LDN stage of PE differentiation, whereas the remaining part of the protocol was unchanged.
# [7] = molecular target: T3, RARα (Homo sapiens, UniProt P10276); conditions: RARα transfected CV-1 cells; equal molar AGN 193109 against ATRA; cited from earlier work
# T3 sequence (P10276 1-462): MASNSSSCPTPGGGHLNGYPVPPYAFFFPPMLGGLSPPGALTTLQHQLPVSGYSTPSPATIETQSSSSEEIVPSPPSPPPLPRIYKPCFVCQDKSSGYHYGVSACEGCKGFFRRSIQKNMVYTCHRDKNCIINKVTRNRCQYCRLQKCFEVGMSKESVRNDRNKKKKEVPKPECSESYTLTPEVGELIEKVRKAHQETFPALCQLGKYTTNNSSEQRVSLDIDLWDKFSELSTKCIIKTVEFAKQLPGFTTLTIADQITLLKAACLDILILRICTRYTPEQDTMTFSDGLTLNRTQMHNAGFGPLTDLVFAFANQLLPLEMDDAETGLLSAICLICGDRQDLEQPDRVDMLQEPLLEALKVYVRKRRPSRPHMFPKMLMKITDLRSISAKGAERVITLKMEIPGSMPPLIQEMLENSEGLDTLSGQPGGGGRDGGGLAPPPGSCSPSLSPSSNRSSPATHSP
# [8] = molecular target: T1, RARγ; conditions: RARγ transfected CV-1 cells; equal molar AGN 193109 against ATRA; cited from earlier work
# [9] = molecular target: T3, RARα; conditions: cited from earlier work
# [10] = tested on: definitive endoderm cells derived from human pluripotent stem cells (hES line SA121); assay: Differentiation of definitive endoderm to pancreatic endoderm, gene expression analysis (Nanostring) on PE10; format: cell-based; conditions: treatment on PE2-3, vs standard protocol
# Experimental: as §1, §2, §3
# [11] = molecular target: T2, RARβ; conditions: RARβ transfected CV-1 cells; equal molar AGN 193109 against ATRA; cited from earlier work
# [12] = treatment on PE2-3, PE10, standard protocol 52%, FIG. 4
compound,measurement,setting,value
Cc1ccc(C2=CCC(C)(C)c3ccc(C#Cc4ccc(C(=O)O)cc4)cc32)cc1 [AGN193109],Cpep/Nkx6.1 double positive beta like cells,"[1]; AGN193109 in LDN stage (PE2-3), BC6-9, standard around 35%",around 50%
same,Glucagon positive cells,"[1]; AGN193109 in LDN stage, BC stage, FIG. 7B",not accompanied by an increase
same,Cpep/Nkx6.1 double positive,"[1]; BC day 6, standard protocol 53%",59%
same,Cpep/Nkx6.1 double positive,"[1]; BC day 13, standard protocol 27%",57%
same,Pdx1-only positive cells with increasing concentrations,"[2]; 1, 3 and 10 μM on PE2-3, FIG. 5A",decrease
same,effect of increasing the concentration from 10 μM to 20 μM on PE induction,"[2]; PE2-3, FIG. 5B",no additional effect
same,dose dependence of effect on Pdx1/Nkx6.1 double positive cells,[2]; range from 0.5 μM to 20 μM on PE2-3,dose-responsive
same,beta to alpha cell ratio (fraction of insulin positive cells relative to glucagon positive cells),[3],higher
same,Kd,[4],2 nM
same,Kd,[5],2 nM
same,Pdx1/Nkx6.1 double positive,"[6]; 10 μM for last 2 days of LDN stage (PE2-3), PE10, standard condition around 40%, FIGS. 1A,B",at least 70%
same,Pdx1/Nkx6.1 double negative cells,"[6]; 10 μM on PE2-3, PE10",less than 10%
same,effect on PE induction (Pdx1/Nkx6.1 double positive) of extending addition from 2 to 4 days in the LDN stage,"[6]; 10 μM, PE10, FIG. 6A",without any negative effect
same,Pdx1/Nkx6.1 double positive,"[6]; 1 L bioreactors (DASgip, Eppendorf), 10 μM on PE2-3, PE10, standard protocol 58.4%, not run in parallel",82.2%
same,DLK1 expressing pancreatic endoderm (flow cytometry),"[6]; added on PE2-3, PE11, standard 13%",31%
same,Pdx1/Nkx6.1 double positive cells,"[6]; rescue of suboptimal PE differentiation, standard 20%, PE10",75%
same,percentage of Nkx2.2 positive cells at the PE stage,"[6]; treatment on PE2-3, PE10, control 2.9%",less than 1%
same,Pdx1/Nkx6.1 double positive,[6]; [12],76.9%
same,antagonism of ATRA-induced transcription,[7],85%
same,antagonism of ATRA-induced transcription,[8],100%
same,Kd,[9],2 nM
same,CPA1 expression,[10],increase
same,DLK1 expression,[10],increase
same,NeuroD expression,[10],lower expression
same,Ngn3 expression,[10],lower expression
same,PTF1A expression,[10],increase
same,antagonism of ATRA-induced transcription,[11],62%
AM580,Pdx1/Nkx6.1 double positive,[6]; [12],~ 14%
same,DLK1 expression,[10],marked down regulation
same,NeuroD expression,[10],marked increase
same,Ngn3 expression,[10],marked increase
same,Nkx6.1 expression,[10],marked down regulation
same,PTF1A expression,[10],marked down regulation
